Measurements as given in US20230167118A1, “DEGRADATION OF BRUTON'S TYROSINE KINASE (BTK) BY CONJUGATION OF BTK INIDBITORS WITH E3 LIGASE LIGAND AND METHODS OF USE” (BEIGENE, LTD., priority 2020, published 2023).

Columns and labels:
[1] = tested on: HEK-293 cells; assay: HEK-293 Cytotoxicity Assay (CellTiter-Glo); type: cell-based; details: Homo sapiens, HEK293, 72 h incubation, CellTiter-Glo luminescence
In short: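 HEK-293 cells treated 72 h with 8 concentrations (4-fold dilutions, 0.2% DMSO final). Viability read by CellTiter-Glo luminescence; IC50 from four-parameter logistic fit of % inhibition.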

[2] = biological target: T1, BTK (Homo sapiens, UniProt Q06187); assay: Cell Degradation: BTK degradation in TMD-8 cells, HTRF assay; type: cell-based; details: 6 h treatment, IC50 (DC50) of BTK degradation
T1 construct: High control=Cell group with added DMSO and without compound, indicating microplate readings without BTK degradation; endogenous in cells; host or cells: TMD-8 cells
T1 sequence (Q06187 whole entry): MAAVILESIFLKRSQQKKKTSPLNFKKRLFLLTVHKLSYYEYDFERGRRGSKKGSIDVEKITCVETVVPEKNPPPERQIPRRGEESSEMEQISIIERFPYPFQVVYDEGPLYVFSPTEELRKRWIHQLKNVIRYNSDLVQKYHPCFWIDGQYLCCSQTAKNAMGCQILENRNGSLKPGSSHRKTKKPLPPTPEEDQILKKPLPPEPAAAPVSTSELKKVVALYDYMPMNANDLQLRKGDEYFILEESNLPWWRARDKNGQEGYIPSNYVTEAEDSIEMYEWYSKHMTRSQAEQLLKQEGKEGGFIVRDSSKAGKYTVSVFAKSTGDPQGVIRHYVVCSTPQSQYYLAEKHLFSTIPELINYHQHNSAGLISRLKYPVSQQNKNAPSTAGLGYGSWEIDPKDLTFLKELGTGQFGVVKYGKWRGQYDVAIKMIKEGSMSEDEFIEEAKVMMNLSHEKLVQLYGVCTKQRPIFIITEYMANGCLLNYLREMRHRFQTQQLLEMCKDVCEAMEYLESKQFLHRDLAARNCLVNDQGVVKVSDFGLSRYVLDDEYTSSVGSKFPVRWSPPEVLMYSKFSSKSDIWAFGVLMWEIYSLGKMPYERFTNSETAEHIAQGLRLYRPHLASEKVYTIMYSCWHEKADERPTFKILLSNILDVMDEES
In short: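 TMD-8 cells treated 6 h with 8-dose 6-fold dilutions in 0.2% DMSO, then lysed and BTK quantified by HTRF (665/620 nm). Degradation % normalised to high/low controls; DC50 from four-parameter fit, Dmax as maximal degradation.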

SMILES | DC50 [2] | IC50 [1]
Cc1nn(C2CCN(CC3CCN(c4ccc(N5CCC(=O)NC5=O)cc4)CC3)CC2)c(C)c1-c1cc2c(-c3ccc([C@@H](C)NC(=O)c4noc(C(C)(C)C)n4)c(CO)c3)ncnc2[nH]1 [Example 120, (R)-5-(tert-butyl)-N-(1-(4-(6-(1-(1-((1-(4-(2,4-dioxotetrahydropyrimidin-1(2H)-yl)phenyl)piperidin-4-yl)methyl)piperidin-4-yl)-3,5-dimethyl-1H-pyrazol-4-yl)-7H-pyrrolo[2,3-d]pyrimidin-4-yl)-2-(hydroxymethyl)phenyl)ethyl)-1,2,4-oxadiazole-3-carboxamide] | 0.18 nM | > 10000 nM
C[C@@H](NC(=O)c1noc(C(C)(C)C)n1)c1ccc(-c2ncnc3[nH]c(-c4ccc(N5CCN(CC6CCN(c7ccc(N8CCC(=O)NC8=O)cc7)CC6)CC5)nc4)cc23)cc1CO [Example 144, (R)-5-(tert-butyl)-N-(1-(4-(6-(6-(4-((1-(4-(2,4-dioxotetrahydropyrimidin-1(2H)-yl)phenyl)piperidin-4-yl)methyl)piperazin-1-yl)pyridin-3-yl)-7H-pyrrolo[2,3-d]pyrimidin-4-yl)-2-(hydroxymethyl)phenyl)ethyl)-1,2,4-oxadiazole-3-carboxamide] | 0.26 nM | > 10000 nM
Cc1c([C@@H](C)NC(=O)c2noc(C(C)(C)C)n2)ccc(-c2ncnc3[nH]c(-c4ccc(N5CCN(CC6CCN(c7ccc(N8CCC(=O)NC8=O)cc7)CC6)CC5)cn4)cc23)c1F [Example 127, (R)-5-(tert-butyl)-N-(1-(4-(6-(5-(4-((1-(4-(2,4-dioxotetrahydropyrimidin-1(2H)-yl)phenyl)piperidin-4-yl)methyl)piperazin-1-yl)pyridin-2-yl)-7H-pyrrolo[2,3-d]pyrimidin-4-yl)-3-fluoro-2-methylphenyl)ethyl)-1,2,4-oxadiazole-3-carboxamide] | 0.42 nM | > 10000 nM
C=C(C)c1ccc(C(=O)Nc2cc(F)cc(-c3ncnc4[nH]c(-c5ccc(C6CCN(CC7CCN(c8ccc(N9CCC(=O)NC9=O)cc8)CC7)CC6)cc5)cc34)c2C)c(F)c1 [Example 29, N-(3-(6-(4-(1-((1-(4-(2,4-dioxotetrahydropyrimidin-1(2H)-yl)phenyl)piperidin-4-yl)methyl)piperidin-4-yl)phenyl)-7H-pyrrolo[2,3-d]pyrimidin-4-yl)-5-fluoro-2-methylphenyl)-2-fluoro-4-(prop-1-en-2-yl)benzamide] | 10.2 nM | > 10000 nM
Cc1cc(-c2ncnc3[nH]c(-c4ccc(N5CCN(CC6CCN(c7ccc(N8CCC(=O)NC8=O)c(C)c7)CC6)CC5)cn4)cc23)c(F)cc1[C@@H](C)NC(=O)c1noc(C(C)(C)C)n1 [Example 130, (R)-5-(tert-butyl)-N-(1-(4-(6-(5-(4-((1-(4-(2,4-dioxotetrahydropyrimidin-1(2H)-yl)-3-methylphenyl)piperidin-4-yl)methyl)piperazin-1-yl)pyridin-2-yl)-7H-pyrrolo[2,3-d]pyrimidin-4-yl)-5-fluoro-2-methylphenyl)ethyl)-1,2,4-oxadiazole-3-carboxamide] | 0.79 nM | > 10000 nM
Cc1cc(-c2ncnc3[nH]c(-c4ccc(N5CCN(CC6CCN(c7ccc(N8CCC(=O)NC8=O)cc7)CC6)CC5)cc4)cc23)ccc1CNC(=O)c1noc(C(C)(C)C)n1 [Example 30, 5-(tert-butyl)-N-(4-(6-(4-(4-((1-(4-(2,4-dioxotetrahydropyrimidin-1(2H)-yl)phenyl)piperidin-4-yl)methyl)piperazin-1-yl)phenyl)-7H-pyrrolo[2,3-d]pyrimidin-4-yl)-2-methylbenzyl)-1,2,4-oxadiazole-3-carboxamide] | 1.7 nM | > 10000 nM
Cc1cc(-c2ncnc3[nH]c(-c4ccc(C5CCN(CCC6CCN(c7ccc(N8CCC(=O)NC8=O)c(F)c7)CC6)CC5)cc4)cc23)ccc1CNC(=O)c1nc(C(C)(C)C)no1 [Example 15, 3-(tert-butyl)-N-(4-(6-(4-(1-(2-(1-(4-(2,4-dioxotetrahydropyrimidin-1(2H)-yl)-3-fluorophenyl)piperidin-4-yl)ethyl)piperidin-4-yl)phenyl)-7H-pyrrolo[2,3-d]pyrimidin-4-yl)-2-methylbenzyl)-1,2,4-oxadiazole-5-carboxamide] | 1 nM | 1230 nM
Cc1nn(C2CCN(CC3CCN(c4ccc(N5CCC(=O)NC5=O)cc4)CC3)CC2)c(C)c1-c1cc2c(-c3cc(CO)c([C@@H](C)NC(=O)c4nc(C(C)(C)C)no4)cc3F)ncnc2[nH]1 [Example 139, (R)-3-(tert-butyl)-N-(1-(4-(6-(1-(1-((1-(4-(2,4-dioxotetrahydropyrimidin-1(2H)-yl)phenyl)piperidin-4-yl)methyl)piperidin-4-yl)-3,5-dimethyl-1H-pyrazol-4-yl)-7H-pyrrolo[2,3-d]pyrimidin-4-yl)-5-fluoro-2-(hydroxymethyl)phenyl)ethyl)-1,2,4-oxadiazole-5-carboxamide] | 0.5 nM | > 10000 nM
Cc1cc(-c2ncnc3[nH]c(-c4ccc(N5CCN(CC6CCN(c7ccc(N8CCC(=O)NC8=O)c(C)c7)CC6)CC5)cn4)cc23)ccc1[C@@H](C)NC(=O)c1noc(C2(C)CC2)n1 [Example 125, (R)-N-(1-(4-(6-(5-(4-((1-(4-(2,4-dioxotetrahydropyrimidin-1(2H)-yl)-3-methylphenyl)piperidin-4-yl)methyl)piperazin-1-yl)pyridin-2-yl)-7H-pyrrolo[2,3-d]pyrimidin-4-yl)-2-methylphenyl)ethyl)-5-(1-methylcyclopropyl)-1,2,4-oxadiazole-3-carboxamide] | 0.74 nM | > 10000 nM
Cc1cc(-c2ncnc3[nH]c(-c4ccc(N5CCN(CC6CCN(c7ccc(N8CCC(=O)NC8=O)cc7)CC6)CC5)cn4)cc23)ccc1[C@@H](C)NC(=O)c1nc(C(C)(C)C)no1 [Example 19, (R)-3-(tert-butyl)-N-(1-(4-(6-(5-(4-((1-(4-(2,4-dioxotetrahydropyrimidin-1(2H)-yl)phenyl)piperidin-4-yl)methyl)piperazin-1-yl)pyridin-2-yl)-7H-pyrrolo[2,3-d]pyrimidin-4-yl)-2-methylphenyl)ethyl)-1,2,4-oxadiazole-5-carboxamide] | 0.72 nM | > 10000 nM
Cc1cc(-c2ncnc3[nH]c(-c4ccc(N5CCN(CC6CCN(c7ccc(N8CCC(=O)NC8=O)cc7)CC6)CC5)nc4)cc23)ccc1[C@@H](C)NC(=O)c1noc(C(C)(C)C)n1 [Example 104, (R)-5-(tert-butyl)-N-(1-(4-(6-(6-(4-((1-(4-(2,4-dioxotetrahydropyrimidin-1(2H)-yl)phenyl)piperidin-4-yl)methyl)piperazin-1-yl)pyridin-3-yl)-7H-pyrrolo[2,3-d]pyrimidin-4-yl)-2-methylphenyl)ethyl)-1,2,4-oxadiazole-3-carboxamide] | 0.6 nM | > 10000 nM

Continued, in another order:

DC50 [2] | SMILES | IC50 [1]
1.6 nM | Cc1cc(-c2ncnc3[nH]c(-c4ccc(C5CCN(CC6CCN(c7ccc(N8CCC(=O)NC8=O)cc7)CC6)C5)nc4)cc23)ccc1[C@@H](C)NC(=O)c1nc(C(C)(C)C)no1 (stereo partly drawn) [Example 162, 3-(tert-butyl)-N-((1R)-1-(4-(6-(6-(1-((1-(4-(2,4-dioxotetrahydropyrimidin-1(2H)-yl)phenyl)piperidin-4-yl)methyl)pyrrolidin-3-yl)pyridin-3-yl)-7H-pyrrolo[2,3-d]pyrimidin-4-yl)-2-methylphenyl)ethyl)-1,2,4-oxadiazole-5-carboxamide] | > 10000 nM
0.24 nM | Cc1cc(-c2ncnc3[nH]c(-c4ccc(C5(O)CN(CC6CCN(c7ccc(N8CCC(=O)NC8=O)cc7)CC6)C5)cn4)cc23)ccc1[C@@H](C)NC(=O)c1nc(C(C)(C)C)no1 [Example 172, (R)-3-(tert-butyl)-N-(1-(4-(6-(5-(1-((1-(4-(2,4-dioxotetrahydropyrimidin-1(2H)-yl)phenyl)piperidin-4-yl)methyl)-3-hydroxyazetidin-3-yl)pyridin-2-yl)-7H-pyrrolo[2,3-d]pyrimidin-4-yl)-2-methylphenyl)ethyl)-1,2,4-oxadiazole-5-carboxamide] | > 10000 nM
1.26 nM | Cc1cc(-c2ncnc3[nH]c(-c4ccc(N5CC6(CN(CC7CCN(c8ccc(N9CCC(=O)NC9=O)cc8)CC7)C6)C5)cc4)cc23)ccc1[C@@H](C)NC(=O)c1nc(C(C)(C)C)no1 [Example 164, (R)-3-(tert-butyl)-N-(1-(4-(6-(4-(6-((1-(4-(2,4-dioxotetrahydropyrimidin-1(2H)-yl)phenyl)piperidin-4-yl)methyl)-2,6-diazaspiro[3.3]heptan-2-yl)phenyl)-7H-pyrrolo[2,3-d]pyrimidin-4-yl)-2-methylphenyl)ethyl)-1,2,4-oxadiazole-5-carboxamide] | > 10000 nM
1.1 nM | Cc1cc(-c2ncnc3[nH]c(-c4ccc(C5CCN(CC6CCN(c7ccc(N8CCC(=O)NC8=O)cc7)CC6)C5)cn4)cc23)ccc1[C@@H](C)NC(=O)c1nc(C(C)(C)C)no1 (stereo partly drawn) [Example 176, 3-(tert-butyl)-N-((1R)-1-(4-(6-(5-(1-((1-(4-(2,4-dioxotetrahydropyrimidin-1(2H)-yl)phenyl)piperidin-4-yl)methyl)pyrrolidin-3-yl)pyridin-2-yl)-7H-pyrrolo[2,3-d]pyrimidin-4-yl)-2-methylphenyl)ethyl)-1,2,4-oxadiazole-5-carboxamide] | > 10000 nM
0.27 nM | Cc1cc(N2CCC(CN3CCN(c4ccc(-c5cc6c(-c7ccc([C@@H](C)NC(=O)c8noc(C(C)(C)C)n8)c(CO)c7)ncnc6[nH]5)cn4)CC3)CC2)ccc1N1CCC(=O)NC1=O [Example 145, (R)-5-(tert-butyl)-N-(1-(4-(6-(6-(4-((1-(4-(2,4-dioxotetrahydropyrimidin-1(2H)-yl)-3-methylphenyl)piperidin-4-yl)methyl)piperazin-1-yl)pyridin-3-yl)-7H-pyrrolo[2,3-d]pyrimidin-4-yl)-2-(hydroxymethyl)phenyl)ethyl)-1,2,4-oxadiazole-3-carboxamide] | > 10000 nM
